Each block holds one compound with its values, some of them ahead of it.
Legend:
[1] = test system: p-ERK in PNAC-1/HPAC cell; assay: Phospho-ERK 1/2 assay (Table 1); format: cell-based; details: Homo sapiens; PNAC-1/HPAC cell, 3 hours compound incubation; read-out: p-ERK IC50
Description: (§1) Allow PNAC-1/HPAC cell growth in a T75 flask in DMEM and 10% 1 fetal calf serum (FCS; Gibco), using standard tissue culture procedures until ˜80% confluency is achieved. Day 1, seed 6000 cells/well in 384 well plate and incubate at 37° C., 5% CO2. Add diluted compound by Echo 550, final DMSO is 0.5%, incubate cells at 37° C., 5% CO2 for 3 hours. Then, remove medium and fix cells with 3.7% formaldehyde in PBS (PFA) by Apricot. Wash with PBS once. Permeabilize cells with cold 100% methanol and repeat wash once with PBS once. Add Li-Cor blocking buffer to each well and incubate 1.5 hours at RT. Remove blocking buffer and add primary antibody mixture (rabbit anti pERK, mouse anti GAPDH). Incubate at 4° C. overnight. Day 2, wash with PBST (Tween-20 in PBS) with total 3 times and then add secondary antibody mixture (goat anti rabbit 800CW (1:800 dilution in the combined solution) and goat anti mouse 680RD (1:800 dilution in the combined solution)), incubate for 60 minutes at RT away from light. Repeat washing with PBST 3 times. After final wash, centrifuge plate up-side-down at 1000 rpm to remove wash solution completely from wells. Before plate scanning, clean the bottom plate surface and the Odyssey* Imager scanning bed (if applicable) with moist, lint-free tissue to avoid any obstructions during scanning. Scan plate with detection in both 700 and 800 nm channels.

Panc-1 p-ERK = assay: Phospho-ERK 1/2 assay, Panc-1 (Table 2); format: cell-based; details: Homo sapiens; Panc-1 cells
Description: as §1
(§2) Table 2 describes the p-ERK IC50 values and selectivity over WT-KRAS cell line MKN-1 of the exemplary compounds of the present disclosure and reference compound MRTX-1133.

WT-KRAS cell line MKN-1 = assay: Phospho-ERK 1/2 assay, WT-KRAS cell line MKN-1 (Table 2); format: cell-based; details: for IC50: Homo sapiens, WT-KRAS cell line MKN-1, p-ERK; for Selectivity Fold: selectivity over WT-KRAS cell line MKN-1 vs Panc-1 p-ERK
Description: as §1, §2

[2] = test system: HPAC (ATCC CRL-2119) cells; assay: KRAS G12D 3D CellTiter-Glo proliferation assay, HPAC; format: cell-based; details: Homo sapiens, 168 h, 3D proliferation, 7 days, CellTiter-Glo 3D
Description: (§3) HPAC (ATCC CRL-2119) and AsPC-1 (ATCC CRL-1682) cells were purchased from ATCC, and each cell was cultured in medium supplemented with 10% fetal bovine serum (FBS), according to the protocol recommended by the manufacture. Serially diluted compound was added to 384-well Ultra-Low Attachment Surface round bottom plate (Corning). 400 cells/well were seeded in plate and incubated at 37° C., 5% CO2 for 7 days. Cell viability was measured using a CellTiter-Glo® 3D Cell Viability Assay kit (Promega) according to the manufacturer's protocol.
(§4) The 2D and 3D proliferation data of the exemplary compounds of the present disclosure in different cell lines are shown in Table 3.

[3] = test system: AsPC-1 (ATCC CRL-1682) cells; assay: KRAS G12D 3D CellTiter-Glo proliferation assay, AsPC-1; format: cell-based; details: Homo sapiens, ASPC1, 168 h; 3D proliferation, 7 days, CellTiter-Glo 3D
Description: as §3, §4

[4] = test system: AsPC-1 (ATCC CRL-1682) cells; assay: KRAS G12D 2D CellTiter-Glo proliferation assay, AsPC-1; format: cell-based; details: Homo sapiens, ASPC1, 2D proliferation, 72 hours
Description: (§5) AsPC-1 (ATCC CRL-1682) and LS513 (ATCC CRL-2134) cells were purchased from ATCC, GP2D (Cobioer CBP60010) cells was purchased from Cobioer biosciences CO., LTD, and each cell was cultured in medium supplemented with 10% fetal bovine serum (FBS), according to the protocol recommended by the manufacture. Cells were seeded 800 cells/well in 384-well plates (Corning) and incubated at 37° C., 5% CO2 for 18 hours. Serially diluted compound was added to the cells, and plates were incubated at 37° C., 5% CO2 for 72 hours. Cell viability was measured using a CellTiter-Glo® Luminescent Cell Viability Assay kit (Promega) according to the manufacturer's protocol.
as §4

[5] = test system: GP2D (Cobioer CBP60010) cells; assay: KRAS G12D 2D CellTiter-Glo proliferation assay, GP2D; format: cell-based; details: 2D proliferation, 72 hours
Description: as §5, §4

[6] = test system: LS513 (ATCC CRL-2134) cells; assay: KRAS G12D 2D CellTiter-Glo proliferation assay, LS513; format: cell-based; details: Homo sapiens, LS-513, 2D proliferation, 72 hours
Description: as §5, §4

[7] = In vivo oral bioavailability assay; details: Balb/c mice female, IV bolus 1 mg/kg and oral gavage 30 mg/kg, single dose
Description: Single dose following IV bolus (1 mg/kg, 0.2 mg/mL in 1% DMSO, 99% SBE-β-CD (10% w/v) in water) and oral gavage (30 mg/kg, 3 mg/mL in 1% MC in DI water) administration of test compound in Balb/c Mice female. The blood samples were collected at 2 min, 5 min, 10 min, 30 min, 1 hr, 2 hr, 4 hr, 8 hr and 24 hr (additional 32 hr and 48 hr for MRTX1133) after IV bolus, at 15 min, 30 min, 1 hr, 1.5 hr, 2 hr, 3 hr, 4 hr, 8 hr and 24 hr (additional 32 hr and 48 hr for MRTX1133) after PO administration. The plasma concentrations of compounds were determined with UPLC-MS/MS.

Structure (SMILES): C#Cc1c(F)ccc2cccc(-c3nc4c5c(nc(OC[C@@]67CCCN6C[C@H](F)C7)nc5c3F)N3CC5CCC(N5)[C@H]3CO4)c12 (single isomer, unassigned) [Compound 10]
IC50 [1]: 2 nM
IC50 (Panc-1 p-ERK): 2 nM
IC50 (WT-KRAS cell line MKN-1): 343 nM
Selectivity Fold (WT-KRAS cell line MKN-1): 171 Fold
IC50 [2]: 28 nM
IC50 [3]: 48 nM
IC50 [4]: 490 nM
IC50 [5]: 15 nM
IC50 [6]: 238 nM
Bioavailability (%) [7]: 37.7%
Fa*Fg (%) [7]: 54.0%

Structure (SMILES): Oc1cc(Cl)c(C2CC2)c(-c2nc3c4c(nc(OC[C@@]56CCCN5C[C@H](F)C6)nc4c2F)N2C[C@@H]4CC[C@@H](N4)C2CO3)c1 (stereo partly drawn) [Compound 24, 3-chloro-4-cyclopropyl-5-((6R,9S)-1-fluoro-12-(((2R,7aS)-2-fluorotetrahydro-1H-pyrrolizin-7a(5H)-yl)methoxy)-5a,6,7,8,9,10-hexahydro-5H-4-oxa-3,10a,11,13,14-pentaaza-6,9-methanonaphtho[1,8-ab]heptalen-2-yl)phenol]
IC50 [1]: 7 nM
IC50 [2]: 7.1 nM
IC50 [3]: 8.7 nM
IC50 [4]: 71 nM
IC50 [5]: 2.2 nM
IC50 [6]: 93 nM

Structure (SMILES): Oc1cc(-c2nc3c4c(nc(OC[C@@]56CCCN5C[C@H](F)C6)nc4c2F)N2C[C@H]4CC[C@H](N4)[C@H]2CO3)c2c(Cl)cccc2c1 [Compound 27, 5-chloro-4-((5aS,6S,9R)-1-fluoro-12-(((2R,7aS)-2-fluorotetrahydro-1H-pyrrolizin-7a(5H)-yl)methoxy)-5a,6,7,8,9,10-hexahydro-5H-4-oxa-3,10a,11,13,14-pentaaza-6,9-methanonaphtho[1,8-ab]heptalen-2-yl)naphthalen-2-ol]
IC50 [1]: 5 nM

Structure (SMILES): CCc1c(F)ccc2cc(O)cc(-c3nc4c5c(nc(OC[C@@]67CCCN6C[C@H](F)C7)nc5c3F)N3C[C@H]5CC[C@H](N5)[C@H]3CO4)c12 [Compound 28, 5-ethyl-6-fluoro-4-((5aS,6S,9R)-1-fluoro-12-(((2R,7aS)-2-fluorotetrahydro-1H-pyrrolizin-7a(5H)-yl)methoxy)-5a,6,7,8,9,10-hexahydro-5H-4-oxa-3,10a,11,13,14-pentaaza-6,9-methanonaphtho[1,8-ab]heptalen-2-yl)naphthalen-2-ol]
IC50 [1]: 0.76 nM
IC50 (Panc-1 p-ERK): 0.76 nM
IC50 (WT-KRAS cell line MKN-1): 76 nM
Selectivity Fold (WT-KRAS cell line MKN-1): 100 Fold
IC50 [2]: 3.3 nM
IC50 [3]: 4.7 nM
IC50 [4]: 35 nM
IC50 [5]: 1.2 nM
IC50 [6]: 25.2 nM

Structure (SMILES): Oc1cc(-c2nc3c4c(nc(OC[C@@]56CCCN5C[C@H](F)C6)nc4c2F)N2C[C@H]4CC[C@H](N4)[C@H]2CO3)c2cc(F)ccc2c1 [Compound 30, 6-fluoro-4-((5aS,6S,9R)-1-fluoro-12-(((2R,7aS)-2-fluorotetrahydro-1H-pyrrolizin-7a(5H)-yl)methoxy)-5a,6,7,8,9,10-hexahydro-5H-4-oxa-3,10a,11,13,14-pentaaza-6,9-methanonaphtho[1,8-ab]heptalen-2-yl)naphthalen-2-ol]
IC50 [1]: 17 nM

Structure (SMILES): C#Cc1cccc2cc(O)cc(-c3nc4c5c(nc(OC[C@@]67CCCN6C[C@H](F)C7)nc5c3F)N3C[C@H]5CC[C@H](N5)[C@H]3CO4)c12 [Compound 31, 5-ethynyl-4-((5aS,6S,9R)-1-fluoro-12-(((2R,7aS)-2-fluorotetrahydro-1H-pyrrolizin-7a(5H)-yl)methoxy)-5a,6,7,8,9,10-hexahydro-5H-4-oxa-3,10a,11,13,14-pentaaza-6,9-methanonaphtho[1,8-ab]heptalen-2-yl)naphthalen-2-ol]
IC50 [1]: 8 nM

Structure (SMILES): C#Cc1c(F)ccc2cccc(-c3nc4c5c(nc(OCC6(CN7CCOCC7)CC6)nc5c3F)N3C[C@H]5CC[C@H](N5)[C@H]3CO4)c12 [Compound 40, (5aS)-2-(8-ethynyl-7-fluoronaphthalen-1-yl)-1-fluoro-12-((1-(morpholinomethyl)cyclopropyl)methoxy)-5a,6,7,8,9,10-hexahydro-5H-4-oxa-3,10a,11,13,14-pentaaza-6,9-methanonaphtho[1,8-ab]heptalene]
IC50 [1]: 155 nM

Structure (SMILES): C#Cc1c(F)ccc2cccc(-c3nc4c5c(nc(OCC6(CN7CCO[C@H](C)C7)CC6)nc5c3F)N3C[C@H]5CC[C@H](N5)[C@H]3CO4)c12 [Compound 41, (5aS)-2-(8-ethynyl-7-fluoronaphthalen-1-yl)-1-fluoro-12-((1-(((R)-2-methylmorpholino)methyl)cyclopropyl)methoxy)-5a,6,7,8,9,10-hexahydro-5H-4-oxa-3,10a,11,13,14-pentaaza-6,9-methanonaphtho[1,8-ab]heptalene]
IC50 [1]: 390 nM

Structure (SMILES): C#Cc1c(F)ccc2cccc(-c3nc4c5c(nc(OCC6(CN7CCOC[C@H]7C)CC6)nc5c3F)N3C[C@H]5CC[C@H](N5)[C@H]3CO4)c12 [Compound 42, (5aS)-2-(8-ethynyl-7-fluoronaphthalen-1-yl)-1-fluoro-12-((1-(((R)-3-methylmorpholino)methyl)cyclopropyl)methoxy)-5a,6,7,8,9,10-hexahydro-5H-4-oxa-3,10a,11,13,14-pentaaza-6,9-methanonaphtho[1,8-ab]heptalene]
IC50 [1]: 159 nM

Structure (SMILES): CCCCCCCCCC(=O)OCOC(=O)N1[C@@H]2CC[C@H]1[C@H]1COc3nc(-c4cc(O)cc5ccc(F)c(CC)c45)c(F)c4nc(OC[C@@]56CCCN5C[C@H](F)C6)nc(c34)N1C2 [Compound 45, (Decanoyloxy)methyl (5aS,6S,9R)-2-(8-ethyl-7-fluoro-3-hydroxynaphthalen-1-yl)-1-fluoro-12-(((2R,7aS)-2-fluorotetrahydro-1H-pyrrolizin-7a(5H)-yl)methoxy)-5a,6,7,8,9,10-hexahydro-5H-4-oxa-3,10a,11,13,14-pentaaza-6,9-methanonaphtho[1,8-ab]heptalene-14-carboxylate]
IC50 [1]: 3.5 nM

Structure (SMILES): C#Cc1c(F)ccc2cc(O)cc(-c3nc4c5c(nc(OC[C@@]67CCCN6C[C@H](F)C7)nc5c3F)N3C[C@H]5CC[C@H](N5)[C@H]3CO4)c12 [Compound 111, 5-ethynyl-6-fluoro-4-((5aS,6S,9R)-1-fluoro-12-(((2R,7aS)-2-fluorotetrahydro-1H-pyrrolizin-7a(5H)-yl)methoxy)-5a,6,7,8,9,10-hexahydro-5H-4-oxa-3,10a,11,13,14-pentaaza-6,9-methanonaphtho[1,8-ab]heptalen-2-yl)naphthalen-2-ol]
IC50 [1]: 12 nM

IC50 (Panc-1 p-ERK): 2.3 nM
IC50 (WT-KRAS cell line MKN-1): 83 nM
Bioavailability (%) [7]: 0.66%
Fa*Fg (%) [7]: 0.95%
Structure (SMILES): C#Cc1c(F)ccc2cc(O)cc(-c3ncc4c(N5CC6CCC(C5)N6)nc(OC[C@@]56CCCN5C[C@H](F)C6)nc4c3F)c12 [MRTX-1133, reference compound]
Selectivity Fold (WT-KRAS cell line MKN-1): 36 Fold
